# Reference: patent US20260355196A1, “INHIBITORS AND DEGRADERS OF PIP4K PROTEIN” (Larkspur Biosciences, Inc., priority 2023, published 2026)
# Biological target: T1, PIP4K2C (Homo sapiens, UniProt Q8TBX8)
# T1 sequence (Q8TBX8 1-421): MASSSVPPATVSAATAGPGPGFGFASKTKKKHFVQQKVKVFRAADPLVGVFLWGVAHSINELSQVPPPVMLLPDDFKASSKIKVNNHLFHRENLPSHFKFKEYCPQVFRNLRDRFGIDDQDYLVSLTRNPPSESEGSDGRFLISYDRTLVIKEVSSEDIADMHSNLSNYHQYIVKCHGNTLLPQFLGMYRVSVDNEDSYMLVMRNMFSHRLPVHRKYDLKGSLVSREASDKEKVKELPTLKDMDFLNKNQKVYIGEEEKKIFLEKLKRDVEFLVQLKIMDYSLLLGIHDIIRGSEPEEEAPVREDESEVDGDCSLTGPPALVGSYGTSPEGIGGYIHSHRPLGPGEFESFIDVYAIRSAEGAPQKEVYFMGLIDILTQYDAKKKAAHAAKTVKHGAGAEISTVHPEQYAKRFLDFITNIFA
# Test: HiBiT PIP4K2C degradation assay in MOLT-4 cells (endogenous PIP4K2C C-terminally tagged with HiBiT)
# Type: cell-based
# Design: untagged in primary human PBMCs and monocyte-derived dendritic cells
# Conditions: 6 hours of incubation time, rather than 24 hours; MOLT-4, top concentration 10 micromolar; read-out: HiBIT-degradation MOLT4 PIP4k2C DC50 (6 hours, marked *)
# Outline: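 MOLT-4 knock-in line, HiBiT on PIP4K2C C-terminus; 22,500 cells/well; 10-pt 3-fold titration from 10 micromolar, n=2; 24 h or 6 h, 37 C, 5% CO2; Nano-Glo HiBiT lytic luminescence; DC50 via Hill equation.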
row,SMILES,DC50 [nM]
1,"O=C1CCC(Nc2ccc(C3CCN([C@H]4CC[C@H](NC(=O)[C@H]5CC[C@H](Nc6ncc(F)c(-c7cccc(C8CC8)c7)n6)CC5)CC4)CC3)c(F)c2)C(=O)N1 (stereo partly drawn) [Compound 503, trans-4-((4-(3-cyclopropylphenyl)-5-fluoropyrimidin-2-yl)amino)-N-(trans-4-(4-(4-((2,6-dioxopiperidin-3-yl)amino)-2-fluorophenyl)piperidin-1-yl)cyclohexyl)cyclohexane-1-carboxamide]",< 500
2,"O=C1CC[C@@H](Nc2ccc(N3CCN([C@H]4CC[C@H](C(=O)N[C@H]5CC[C@H](Nc6ncc(F)c(-c7cccc(N8CCCOC8=O)c7)n6)CC5)CC4)CC3)c(F)c2)C(=O)N1 (single isomer, unassigned) [Compound 461]",< 500
3,"O=C1CCC(Nc2ccc(N3CCN([C@H]4CC[C@H](C(=O)N[C@H]5CC[C@H](Nc6ncc(F)c(-c7cccc(N8CCCOC8=O)c7)n6)CC5)CC4)CC3)c(F)c2)C(=O)N1 (stereo partly drawn) [Compound 424, trans-(1r,4R)-4-(4-(4-((2,6-dioxopiperidin-3-yl)amino)-2-fluorophenyl)piperazin-1-yl)-N-((1r,4R)-4-((5-fluoro-4-(3-(2-oxo-1,3-oxazinan-3-yl)phenyl)pyrimidin-2-yl)amino)cyclohexyl)cyclohexane-1-carboxamide]",< 500

# Now from value to molecule:
row,DC50 [nM],SMILES
1,< 500,"Cc1ccc(=O)n(-c2cccc(-c3nc(N[C@H]4CC[C@H](C(=O)N[C@H]5CC[C@H](N6CCC(c7ccc(NC8CCC(=O)NC8=O)cc7F)CC6)CC5)CC4)ncc3F)c2)c1 (stereo partly drawn) [Compound 551, trans-N-(trans-4-(4-(4-((2,6-dioxopiperidin-3-yl)amino)-2-fluorophenyl)piperidin-1-yl)cyclohexyl)-4-((5-fluoro-4-(3-(5-methyl-2-oxopyridin-1 (2H)-yl)phenyl)pyrimidin-2-yl)amino)cyclohexane-1-carboxamide]"
2,< 500,"O=C1CCC(Nc2ccc(N3CCC(N4CCC(C(=O)N[C@H]5CC[C@H](Nc6ncc(F)c(-c7cccc(N8CCOCC8=O)c7)n6)CC5)CC4)CC3)c(F)c2)C(=O)N1 (stereo partly drawn) [Compound 585, trans-1′-(4-((2,6-dioxopiperidin-3-yl)amino)-2-fluorophenyl)-N-(4-((5-fluoro-4-(3-(3-oxomorpholino)phenyl)pyrimidin-2-yl)amino)cyclohexyl)-[1,4′-bipiperidine]-4-carboxamide]"
3,< 500,"O=C1CC[C@H](Nc2ccc(C3CCN(CC4CCN(C(=O)[C@H]5CC[C@H](Nc6ncc(F)c(-c7cccc(N8CCCOC8=O)c7)n6)CC5)CC4)CC3)c(F)c2)C(=O)N1 (single isomer, unassigned) [Compound 600]"
4,< 500,"O=C1CCC(Nc2ccc(N3CCC(N4CCC(C(=O)N[C@H]5CC[C@H](Nc6ncc(F)c(-c7cccc(N8CCCCC8)c7)n6)CC5)CC4)CC3)c(F)c2)C(=O)N1 (stereo partly drawn) [Compound 516, trans-1′-(4-((2,6-dioxopiperidin-3-yl)amino)-2-fluorophenyl)-N-(4-((5-fluoro-4-(3-(piperidin-1-yl)phenyl)pyrimidin-2-yl)amino)cyclohexyl)-[1,4′-bipiperidine]-4-carboxamide]"
5,< 500,"O=C1CCC(Nc2ccc(C3CCN([C@H]4CC[C@H](C(=O)N[C@H]5CC[C@H](Nc6ncc(F)c(-c7ccnc(N8CCCOC8=O)c7)n6)CC5)CC4)CC3)c(F)c2)C(=O)N1 (stereo partly drawn) [Compound 572, trans-(1r,4R)-4-(4-(4-((2,6-dioxopiperidin-3-yl)amino)-2-fluorophenyl)piperidin-1-yl)-N-((1r,4R)-4-((5-fluoro-4-(2-(2-oxo-1,3-oxazinan-3-yl)pyridin-4-yl)pyrimidin-2-yl)amino)cyclohexyl)cyclohexane-1-carboxamide]"
6,< 500,"O=C1CCC(Nc2ccc(C3CCN(C[C@H]4CC[C@H](COC(=O)N5CCC(Nc6ncc(F)c(-c7cccc(-n8ccccc8=O)c7)n6)CC5)CC4)CC3)c(F)c2)C(=O)N1 (stereo partly drawn) [Compound 644, trans-(4-((4-(4-((2,6-dioxopiperidin-3-yl)amino)-2-fluorophenyl)piperidin-1-yl)methyl)cyclohexyl)methyl 4-((5-fluoro-4-(3-(2-oxopyridin-1 (2H)-yl)phenyl)pyrimidin-2-yl)amino)piperidine-1-carboxylate]"
7,< 500,"O=C1CCC(Nc2ccc(N3CCN(CC4CCN(C(=O)[C@H]5CC[C@H](Nc6ncc(F)c(-c7cccc(C8CC8)c7)n6)CC5)CC4)CC3)c(F)c2)C(=O)N1 (stereo partly drawn) [Compound 555, trans-3-[4-[4-[[1-[4-[[4-(3-cyclopropylphenyl)-5-fluoro-pyrimidin-2-yl]amino]cyclohexanecarbonyl]-4-piperidyl]methyl]piperazin-1-yl]-3-fluoro-anilino]piperidine-2,6-dione]"
8,< 500,"O=C1CC[C@@H](Nc2ccc(C3CCN(CC4CCN(C(=O)[C@H]5CC[C@H](Nc6ncc(F)c(-c7cccc(N8CCCOC8=O)c7)n6)CC5)CC4)CC3)c(F)c2)C(=O)N1 (single isomer, unassigned) [Compound 601]"

# Same assay, conditions: 24 hours incubation, MOLT-4, top concentration 10 micromolar; read-out: HiBIT-degradation MOLT4 PIP4k2C 24 hours DC50
row,DC50 [nM],SMILES
1,< 500,"O=C1CCC(Nc2ccc(C3CCN(C[C@H]4CC[C@H](NC(=O)[C@H]5CCC[C@@H](Nc6ncc(F)c(-c7cccc(-n8ccccc8=O)c7)n6)C5)CC4)CC3)c(F)c2)C(=O)N1 (stereo in doubt) [Compound 324, trans-N-(cis-4-((4-(4-((2,6-dioxopiperidin-3-yl)amino)-2-fluorophenyl)piperidin-1-yl)methyl)cyclohexyl)-3-((5-fluoro-4-(3-(2-oxopyridin-1(2H)-yl)phenyl)pyrimidin-2-yl)amino)cyclohexane-1-carboxamide]"
2,< 500,"O=C1CCC(N2Cc3cc(OC4CCN(C(=O)CN5CCC(C(=O)N6CCC(Nc7ncc(Cl)c(-c8cccc(-c9ccccc9)c8)n7)CC6)CC5)CC4)ccc3C2=O)C(=O)N1 (stereo not shown) [Compound 83, 3-(5-((1-(2-(4-(4-((4-([1,1′-biphenyl]-3-yl)-5-chloropyrimidin-2-yl)amino)piperidine-1-carbonyl)piperidin-1-yl)acetyl)piperidin-4-yl)oxy)-1-oxoisoindolin-2-yl)piperidine-2,6-dione]"
3,< 500,"Cn1c(=O)n(C2CCC(=O)NC2=O)c2ccc(C3CCN(C(=O)CC4CCN(C(=O)[C@H]5CCC[C@@H](Nc6ncc(Cl)c(-c7cccc(-c8ccccc8)c7)n6)C5)CC4)CC3)cc21 (relative stereo) [Compound 59, cis-3-(5-(1-(2-(1-(3-((4-([1,1′-biphenyl]-3-yl)-5-chloropyrimidin-2-yl)amino)cyclohexane-1-carbonyl)piperidin-4-yl)acetyl)piperidin-4-yl)-3-methyl-2-oxo-2,3-dihydro-1H-benzo[d]imidazol-1-yl)piperidine-2,6-dione]"
4,< 500,"O=C1CCC(n2c(=O)oc3c(C4CCN(C(=O)CN5CCC(C(=O)N6CCC(Nc7ncc(Cl)c(-c8cccc(-c9ccc(F)cc9)c8)n7)CC6)CC5)CC4)cccc32)C(=O)N1 (stereo not shown) [Compound 293, 3-(7-(1-(2-(4-(4-((5-chloro-4-(4′-fluoro-[1,1′-biphenyl]-3-yl)pyrimidin-2-yl)amino)piperidine-1-carbonyl)piperidin-1-yl)acetyl)piperidin-4-yl)-2-oxobenzo[d]oxazol-3 (2H)-yl)piperidine-2,6-dione]"
5,< 500,"O=C1CCC(Nc2ccc(C3CCN(CC4CCN(CC(=O)N[C@H]5CC[C@H](Nc6ncc(F)c(-c7cccc(-n8ccccc8=O)c7)n6)CC5)CC4)CC3)c(F)c2)C(=O)N1 (stereo partly drawn) [Compound 313, trans-2-(4-((4-(4-((2,6-dioxopiperidin-3-yl)amino)-2-fluorophenyl)piperidin-1-yl)methyl)piperidin-1-yl)-N-(4-((5-fluoro-4-(3-(2-oxopyridin-1(2H)-yl)phenyl)pyrimidin-2-yl)amino)cyclohexyl)acetamide]"
6,< 500,"Cn1nc(C2CCC(=O)NC2=O)c2ccc(C3CCN(CCC4CCN(C(=O)[C@H]5CCC[C@@H](Nc6ncc(F)c(-c7cccc(-n8ccccc8=O)c7)n6)C5)CC4)CC3)cc21 (relative stereo) [Compound 298, 3-(6-(1-(2-(1-(cis-3-((5-fluoro-4-(3-(2-oxopyridin-1(2H)-yl)phenyl)pyrimidin-2-yl)amino)cyclohexane-1-carbonyl)piperidin-4-yl)ethyl)piperidin-4-yl)-1-methyl-1H-indazol-3-yl)piperidine-2,6-dione]"
7,< 500,"O=C1CCC(n2c(=O)oc3cc(N4CCN(CC5CCN(CC(=O)N6CCC(Nc7ncc(F)c(-c8cccc(-n9ccccc9=O)c8)n7)CC6)CC5)CC4)ccc32)C(=O)N1 (stereo not shown) [Compound 340, 3-(6-(4-((1-(2-(4-((5-fluoro-4-(3-(2-oxopyridin-1(2H)-yl)phenyl)pyrimidin-2-yl)amino)piperidin-1-yl)-2-oxoethyl)piperidin-4-yl)methyl)piperazin-1-yl)-2-oxobenzo[d]oxazol-3 (2H)-yl)piperidine-2,6-dione]"
8,< 500,"O=C1CCC(N2Cc3cc(OC4CCN(CC5CCN(C(=O)[C@H]6CCC[C@@H](Nc7ncc(Cl)c(-c8cccc(-c9ccccc9)c8)n7)C6)CC5)CC4)ccc3C2=O)C(=O)N1 (relative stereo) [Compound 76, cis-3-(5-((1-((1-(3-((4-([1,1′-biphenyl]-3-yl)-5-chloropyrimidin-2-yl)amino)cyclohexane-1-carbonyl)piperidin-4-yl)methyl)piperidin-4-yl)oxy)-1-oxoisoindolin-2-yl)piperidine-2,6-dione]"
